Test results from ChEMBL document CHEMBL1201862, “PubChem BioAssay data set” (2004).
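Each compound was tested at five concentrations against cells in 96-well plates for 48 hours. GI50 = concentration required for 50% inhibition of growth.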 The source made the active and inactive calls. Cut-off read from the data, not from the text of the source: active = GI50 up to about 1.1 µM and inactive = higher.

Legend:
Test in all cases: NCI anticancer screen, dose series, 48 h
OVCAR-8 = tested on: OVCAR-8
SF-539 = tested on: SF-539
PC-3 = tested on: PC-3
HOP-92 = tested on: HOP-92
IGROV-1 = tested on: IGROV-1
786-0 = tested on: 786-0
UACC-257 = tested on: UACC-257
T47D = tested on: T47D
RPMI-8226 = tested on: RPMI-8226
SN12C = tested on: SN12C
DU-145 = tested on: DU-145
RXF 393 = tested on: RXF 393
HL-60 = tested on: HL-60
KM12 = tested on: KM12
BT-549 = tested on: BT-549
SK-MEL-28 = tested on: SK-MEL-28
CCRF-CEM = tested on: CCRF-CEM
OVCAR-5 = tested on: OVCAR-5
SK-OV-3 = tested on: SK-OV-3
MOLT-4 = tested on: MOLT-4
MCF7 = tested on: MCF7
NCI-H522 = tested on: NCI-H522
NCI-H23 = tested on: NCI-H23
SK-MEL-2 = tested on: SK-MEL-2
LOX IMVI = tested on: LOX IMVI
HCC 2998 = tested on: HCC 2998
MDA-MB-231 = tested on: MDA-MB-231
SW-620 = tested on: SW-620
ACHN = tested on: ACHN
UACC-62 = tested on: UACC-62
OVCAR-3 = tested on: OVCAR-3
SNB-19 = tested on: SNB-19
A549 = tested on: A549
SF-268 = tested on: SF-268
A498 = tested on: A498
UO-31 = tested on: UO-31
SK-MEL-5 = tested on: SK-MEL-5
MDA-MB-435 = tested on: MDA-MB-435
EKVX = tested on: EKVX
OVCAR-4 = tested on: OVCAR-4
HT-29 = tested on: HT-29
SR = tested on: SR
Hs-578T = tested on: Hs-578T
NCI-H226 = tested on: NCI-H226
NCI-H460 = tested on: NCI-H460
HCT-15 = tested on: HCT-15
M14 = tested on: M14
MDA-N = tested on: MDA-N
SF-295 = tested on: SF-295
K562 = tested on: K562
TK-10 = tested on: TK-10
NCI/ADR-RES = tested on: NCI/ADR-RES
Malme-3M = tested on: Malme-3M
HCT-116 = tested on: HCT-116
COLO 205 = tested on: COLO 205
HOP-62 = tested on: HOP-62
U-251 = tested on: U-251
CAKI-1 = tested on: CAKI-1
SNB-75 = tested on: SNB-75

Measured: GI50

C1CSC(Sc2nc(SC3=NCCS3)nc(SC3=NCCS3)n2)=N1
> 100 µM: HCT-15
inactive: OVCAR-8 > 100 µM | SF-539 > 100 µM | PC-3 > 100 µM | HOP-92 > 100 µM | IGROV-1 > 100 µM | 786-0 > 100 µM | UACC-257 > 100 µM | T47D > 100 µM | RPMI-8226 > 100 µM | SN12C > 100 µM | DU-145 > 100 µM | RXF 393 > 100 µM | HL-60 > 100 µM | KM12 > 100 µM | BT-549 > 100 µM | SK-MEL-28 > 100 µM | CCRF-CEM > 100 µM | OVCAR-5 > 100 µM | SK-OV-3 > 100 µM | MOLT-4 > 100 µM | MCF7 > 100 µM | NCI-H522 35.5 µM | NCI-H23 > 100 µM | SK-MEL-2 > 100 µM | LOX IMVI > 100 µM | HCC 2998 > 100 µM | MDA-MB-231 > 100 µM | SW-620 > 100 µM | ACHN > 100 µM | UACC-62 > 100 µM | OVCAR-3 > 100 µM | SNB-19 > 100 µM | A549 > 100 µM | SF-268 > 100 µM | A498 > 100 µM | UO-31 > 100 µM | SK-MEL-5 > 100 µM | MDA-MB-435 > 100 µM | EKVX > 100 µM | OVCAR-4 > 100 µM | HT-29 > 100 µM | SR > 100 µM | Hs-578T > 100 µM | NCI-H226 > 100 µM | NCI-H460 > 100 µM | M14 > 100 µM | MDA-N > 100 µM | SF-295 > 100 µM | K562 > 100 µM | TK-10 > 100 µM | NCI/ADR-RES > 100 µM | Malme-3M > 100 µM | HCT-116 > 100 µM | COLO 205 > 100 µM | HOP-62 > 100 µM | U-251 > 100 µM | CAKI-1 > 100 µM

O=C(NNC(=O)c1ccccc1S)c1ccccc1S [BIS(THIOSALICYL)HYDRAZIDE]
active: NCI-H522 0.0154 µM
inactive: OVCAR-8 12 µM | SF-539 11.7 µM | PC-3 32.1 µM | HOP-92 > 25 µM | IGROV-1 7.29 µM | 786-0 9.42 µM | UACC-257 13.8 µM | T47D 10.8 µM | RPMI-8226 18.4 µM | SNB-75 18 µM | SN12C 13.6 µM | DU-145 20.6 µM | RXF 393 22.6 µM | HL-60 8.79 µM | KM12 24.5 µM | BT-549 9.38 µM | SK-MEL-28 > 25 µM | CCRF-CEM 1.24 µM | OVCAR-5 12.4 µM | SK-OV-3 > 25 µM | MOLT-4 7.11 µM | MCF7 10 µM | NCI-H23 11.1 µM | SK-MEL-2 43.9 µM | LOX IMVI 9.84 µM | HCC 2998 5.96 µM | MDA-MB-231 > 25 µM | SW-620 11.6 µM | ACHN 10.8 µM | UACC-62 9.27 µM | OVCAR-3 9.14 µM | SNB-19 23.4 µM | A549 14.3 µM | SF-268 11.2 µM | A498 > 100 µM | UO-31 8.43 µM | SK-MEL-5 23 µM | MDA-MB-435 14.6 µM | EKVX 8.34 µM | OVCAR-4 15.6 µM | HT-29 8.47 µM | SR 13.5 µM | Hs-578T 45 µM | NCI-H226 15.5 µM | NCI-H460 9.29 µM | M14 10.3 µM | MDA-N 18.2 µM | SF-295 10.3 µM | K562 14.6 µM | TK-10 > 25 µM | NCI/ADR-RES 11.3 µM | Malme-3M 23.7 µM | HCT-116 6.79 µM | COLO 205 11.1 µM | HOP-62 15.9 µM | U-251 15.1 µM | CAKI-1 6.93 µM
6.03 µM: HCT-15

CCC(CCC(C)C1CCC2C3CC=C4CC(OC5OC(CO)C(O)C(O)C5O)CCC4(C)C3CCC12C)C(C)C (stereo not drawn)
> 100 µM: HCT-15
inactive: OVCAR-8 > 100 µM | SF-539 > 100 µM | PC-3 > 100 µM | HOP-92 > 100 µM | IGROV-1 > 100 µM | 786-0 > 100 µM | UACC-257 > 100 µM | T47D > 100 µM | RPMI-8226 > 100 µM | SN12C > 100 µM | DU-145 > 100 µM | RXF 393 > 100 µM | HL-60 > 100 µM | KM12 > 100 µM | BT-549 > 100 µM | SK-MEL-28 > 100 µM | CCRF-CEM > 100 µM | OVCAR-5 > 100 µM | SK-OV-3 > 100 µM | MOLT-4 > 100 µM | MCF7 > 100 µM | NCI-H522 > 100 µM | NCI-H23 > 100 µM | SK-MEL-2 > 100 µM | LOX IMVI > 100 µM | HCC 2998 > 100 µM | MDA-MB-231 > 100 µM | SW-620 > 100 µM | ACHN > 100 µM | UACC-62 > 100 µM | OVCAR-3 > 100 µM | SNB-19 > 100 µM | A549 > 100 µM | SF-268 > 100 µM | A498 > 100 µM | UO-31 > 100 µM | SK-MEL-5 > 100 µM | MDA-MB-435 > 100 µM | EKVX > 100 µM | OVCAR-4 > 100 µM | HT-29 > 100 µM | SR 26.4 µM | Hs-578T > 100 µM | NCI-H226 > 100 µM | NCI-H460 > 100 µM | M14 > 100 µM | MDA-N > 100 µM | SF-295 98.9 µM | TK-10 > 100 µM | NCI/ADR-RES > 100 µM | Malme-3M > 100 µM | HCT-116 > 100 µM | COLO 205 > 100 µM | HOP-62 > 100 µM | U-251 > 100 µM | CAKI-1 > 100 µM

CCOC(=O)NC(C(F)(F)F)(C(F)(F)F)P(=O)(OCC(C)C)OCC(C)C
4.18 µM: HCT-15
inactive: OVCAR-8 5.41 µM | SF-539 15.7 µM | PC-3 6.37 µM | HOP-92 9.38 µM | IGROV-1 10.2 µM | T47D 23.8 µM | RPMI-8226 14.4 µM | SNB-75 23.6 µM | SN12C 16.2 µM | DU-145 35 µM | RXF 393 11.3 µM | HL-60 2.97 µM | KM12 14 µM | BT-549 13.2 µM | SK-MEL-28 18 µM | CCRF-CEM 2.67 µM | OVCAR-5 18.6 µM | SK-OV-3 13.7 µM | MCF7 4.7 µM | NCI-H522 2.49 µM | SK-MEL-2 14.9 µM | LOX IMVI 4.49 µM | HCC 2998 34.6 µM | MDA-MB-231 15.1 µM | SW-620 3.82 µM | ACHN 8.34 µM | UACC-62 11.7 µM | OVCAR-3 19.1 µM | SNB-19 28.8 µM | A549 22.3 µM | SF-268 11.1 µM | A498 41.9 µM | UO-31 7.35 µM | SK-MEL-5 12.1 µM | MDA-MB-435 15.5 µM | EKVX 21.6 µM | HT-29 11.5 µM | SR 9.77 µM | Hs-578T 14.9 µM | NCI-H226 13.9 µM | NCI-H460 19.2 µM | M14 11.6 µM | MDA-N 6.04 µM | SF-295 24.8 µM | K562 7.28 µM | TK-10 11.9 µM | NCI/ADR-RES 5.05 µM | Malme-3M 16.2 µM | HCT-116 2.55 µM | COLO 205 10.2 µM | HOP-62 30 µM | U-251 5.98 µM | CAKI-1 27.9 µM
